In general, EC50 refers to the midpoint of the concentration-response curve. Low values mean higher potency in that assay, high ones lower potency in that assay. By IC50 is commonly meant the point on the concentration scale where inhibition reaches its midpoint. Higher therefore signals a need for much substance. For orientation: half-life means how long it takes for the measured level to halve. Lower therefore signals fast loss.

Some results are limits rather than exact numbers.

The text below walks through data of ChEMBL document CHEMBL1128056, “Methanodibenzosuberylpiperazines as potent multidrug resistance reversal agents” (Bioorg Med Chem Lett, 1995).

One data set relates to CHRC5 cell line. In words: Tested for in vitro proliferation and viability of multidrug resistant CHRC5 Chinese hamster cells in the presence and absence of doxorubicin in a modified MTT assay. The class given is functional, cell-based, Cricetulus griseus. The following applies: Cricetulus griseus, CHRC5.
`OC(COc1cccc2ncccc12)CN1CCN(C2c3ccccc3CCc3ccccc32)CC1` (stereo not drawn) registered an EC50 of 65 nM.
For `COc1ccc(CCN(C)CCCC(C#N)(c2ccc(OC)c(OC)c2)C(C)C)cc1OC` (stereo not drawn), the EC50 was 1200 nM.
`OC(COc1cccc2ncccc12)CN1CCN(C2c3ccccc3C3CC3c3ccccc32)CC1` (stereo not drawn): the EC50 turned out to be 40 nM.
On the same count and under the same terms, under `OC(COc1cccc2ncccc12)CN1CCN(C2c3ccccc3C3C(c4ccccc42)C3(Cl)Cl)CC1` (stereo in doubt; form 1) stands 100 nM.

The same data set, now with this note: chrc5.
`OC(COc1cccc2ncccc12)CN1CCN(C2c3ccccc3C3C(c4ccccc42)C3(Cl)Cl)CC1` (racemic) gave an EC50 of 70 nM.
Same read-out and setting: the value for `OC(COc1cccc2ncccc12)CN1CCN(C2c3ccccc3C3C(c4ccccc42)C3(F)F)CC1` (single isomer, unassigned) was 190 nM.
The same measure, in the same setting: under `OC(COc1cccc2ncccc12)CN1CCN(C2c3ccccc3C3C(c4ccccc42)C3(F)F)CC1` (stereo in doubt; form 1) [listing 1 of 2 here] stands 50 nM; under `OC(COc1cccc2ncccc12)CN1CCN(C2c3ccccc3C3C(c4ccccc42)C3(Cl)Cl)CC1` (stereo in doubt; form 2), 55 nM.
The same measure, in the same setting: the value for `OC(COc1cccc2ncccc12)CN1CCN(C2c3ccccc3C3C(c4ccccc42)C3(F)F)CC1` (stereo in doubt; form 2) [listing 1 of 2 here] was 60 nM; that for `OC(COc1cccc2ncccc12)CN1CCN(C2c3ccccc3C3C(c4ccccc42)C3(F)F)CC1` (stereo in doubt; form 3) was 180 nM.
Compound `OC(COc1cccc2ncccc12)CN1CCN(C2c3ccccc3C3C(c4ccccc42)C3(F)F)CC1` (stereo in doubt; form 4) registered an EC50 of 200 nM.
On the same count and under the same terms, the value for `OC(COc1cccc2ncccc12)CN1CCN(C2c3ccccc3C3C(c4ccccc42)C3(F)F)CC1` (stereo in doubt; form 5) [listing 1 of 2 here] was 20.7 nM.

Molecular target in the next data set: not listed separately
Description: Binding affinity to glycoprotein p was tested.
Settings: not given
As to `OC(COc1cccc2ncccc12)CN1CCN(C2c3ccccc3C3C(c4ccccc42)C3(F)F)CC1` (stereo in doubt; form 5) [listing 1 of 2 here], the IC50 was found to be 40 nM.

A further data set relates to CHRC5 cell line. In words: Compound was tested for its cytotoxic effect on CHRC5 Chinese hamster cells at a dose of 1 uM; not cytotoxic. The settings on record: Cricetulus griseus. The class given is functional, cell-based.
As for `OC(COc1cccc2ncccc12)CN1CCN(C2c3ccccc3C3C(c4ccccc42)C3(F)F)CC1` (stereo in doubt; form 1) [listing 2 of 2 here], the Activity result is “Non-toxic”.
On the same count and under the same terms, under `OC(COc1cccc2ncccc12)CN1CCN(C2c3ccccc3C3C(c4ccccc42)C3(F)F)CC1` (stereo in doubt; form 2) [listing 2 of 2 here] stands “Non-toxic”; under `OC(COc1cccc2ncccc12)CN1CCN(C2c3ccccc3C3C(c4ccccc42)C3(F)F)CC1` (stereo in doubt; form 5) [listing 2 of 2 here], “Non-toxic”.

Tested on in the next data set: not listed separately
Description: Half-life at pH 2.0 and 37 degree C. The class given is ADME. The settings on record: buffer.
For the compound `OC(COc1cccc2ncccc12)CN1CCN(C2c3ccccc3C3C(c4ccccc42)C3(Cl)Cl)CC1` (stereo in doubt; form 1), the half-life was greater than 72 h.
The same measure, in the same setting: under `OC(COc1cccc2ncccc12)CN1CCN(C2c3ccccc3C3C(c4ccccc42)C3(F)F)CC1` (stereo in doubt; form 1) [listing 1 of 2 here] stands greater than 72 h.
